Measured values published in patent US11976083B2, “Inhibitors of peptidylarginine deiminases” (Gilead Sciences, Inc., priority 2020, dated 2024).

Each compound was assayed against T1, human PAD4 (Homo sapiens, UniProt Q9UM07) (assay: In vitro PAD4 BAEE biochemical assay). Details: BAEE substrate 3 mM, 5 nM PAD4, 2 mM calcium chloride; geometric mean of multiple experiments.
T1 construct: human PAD4 (NM_012387), A2-P663, was PCR amplified; His-SUMO (N, cleaved yes); made in house; host or cells: E. coli BL21(DE3)
Outline: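 Fluorescence read-out (ex 405/em 535 nm) of isoindole formed from ammonia, o-phthalaldehyde and DTT after EDTA stop. Reaction: 5 nM PAD4, 2 mM CaCl2, 3 mM BAEE, 2 h, 25 °C, after 30 min enzyme–compound preincubation. Normalised to BB-Cl-Amidine (50 µM) and DMSO controls.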

T1 sequence (Q9UM07 2-663): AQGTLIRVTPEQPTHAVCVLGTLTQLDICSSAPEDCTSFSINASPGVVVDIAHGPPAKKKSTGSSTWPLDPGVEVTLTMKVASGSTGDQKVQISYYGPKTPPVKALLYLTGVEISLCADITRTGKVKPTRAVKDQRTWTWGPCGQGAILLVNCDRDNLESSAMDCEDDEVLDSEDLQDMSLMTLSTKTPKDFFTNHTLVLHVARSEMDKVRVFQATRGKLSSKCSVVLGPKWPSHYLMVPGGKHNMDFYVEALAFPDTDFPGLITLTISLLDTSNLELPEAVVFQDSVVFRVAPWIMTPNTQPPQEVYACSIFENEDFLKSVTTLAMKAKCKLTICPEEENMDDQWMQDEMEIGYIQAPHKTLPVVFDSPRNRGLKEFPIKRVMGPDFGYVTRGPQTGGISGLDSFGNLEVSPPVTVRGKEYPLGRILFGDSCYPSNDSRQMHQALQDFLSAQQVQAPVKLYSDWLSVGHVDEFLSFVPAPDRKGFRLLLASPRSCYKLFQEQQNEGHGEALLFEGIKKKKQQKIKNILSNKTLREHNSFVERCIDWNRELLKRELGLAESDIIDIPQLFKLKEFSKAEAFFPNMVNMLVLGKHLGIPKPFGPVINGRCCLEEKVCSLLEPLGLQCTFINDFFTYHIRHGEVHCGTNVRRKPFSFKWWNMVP

Row | IC50 [µM] | Compound
1 | 0.266 | COc1cc(C(=O)N2[C@H]3CC[C@@H]2[C@H](N)C3)cc2nc(-c3cc4ccc5nc4n3CCCCCCCC(=O)N(C)[C@@H]5C)c(C)n12 [Example 319, (11~{R})-17-[7-[(1~{R},2~{R},4~{S})-2-amino-7-azabicyclo[2.2.1]heptane-7-carbonyl]-5-methoxy-3-methyl-imidazo[1,2-a]pyridin-2-yl]-10,11-dimethyl-1,10,19-triazatricyclo[10.5.2.0^{15,18}]nonadeca-12(19),13,15(18),16-tetraen-9-one]
2 | 0.017 | COc1cc(C(=O)N2[C@H]3CC[C@@H]2[C@H](N)C3)cc2nc(-c3cc4ccc5nc4n3CCCCCC(=O)N[C@@H]5C)c(C)n12 [Example 320, (9~{R})-15-[7-[(1~{R},2~{R},4~{S})-2-amino-7-azabicyclo[2.2.1]heptane-7-carbonyl]-5-methoxy-3-methyl-imidazo[1,2-a]pyridin-2-yl]-9-methyl-1,8,17-triazatricyclo[8.5.2.0^{13,16}]heptadeca-10(17),11,13(16),14-tetraen-7-one]
3 | 0.032 | COc1cc(C(=O)N2[C@H]3CC[C@@H]2[C@H](N)C3)cc2nc(-c3cc4ccc5nc4n3CCCCOCCC(=O)N[C@@H]5C)c(C)n12 [Example 321, (11~{R})-17-[7-[(1~{R},2~{R},4~{S})-2-amino-7-azabicyclo[2.2.1]heptane-7-carbonyl]-5-methoxy-3-methyl-imidazo[1,2-a]pyridin-2-yl]-11-methyl-6-oxa-1,10,19-triazatricyclo[10.5.2.0^{15,18}]nonadeca-12(19),13,15(18),16-tetraen-9-one]
4 | 0.015 | COc1cc(C(=O)N2[C@H]3CC[C@@H]2[C@H](N)C3)cc2nc(-c3cc4ccc5nc4n3C[C@@H]3C[C@H]3COCCC(=O)N[C@@H]5C)c(C)n12 [Example 322, (3~{R},5~{R},12~{R})-18-[7-[(1~{R},2~{R},4~{S})-2-amino-7-azabicyclo[2.2.1]heptane-7-carbonyl]-5-methoxy-3-methyl-imidazo[1,2-a]pyridin-2-yl]-12-methyl-7-oxa-1,11,20-triazatetracyclo[11.5.2.0^{3,5}.0^{16,19}] icosa-13(20),14,16(19),17-tetraen-10-one]
5 | 0.014 | COc1cc(C(=O)N2[C@H]3CC[C@@H]2[C@H](N)C3)cc2nc(-c3cc4ccc5nc4n3C[C@H]3C[C@@H]3COCCC(=O)N[C@@H]5C)c(C)n12 [Example 323, (3~{S),5~{S},12~{R})-18-[7-[(1~{R},2~{R},4~{S})-2-amino-7-azabicyclo[2.2.1]heptane-7-carbonyl]-5-methoxy-3-methyl-imidazo[1,2-a]pyridin-2-yl]-12-methyl-7-oxa-1,11,20-triazatetracyclo[11.5.2.0^{3,5}.0^{16,19}] icosa-13(20),14,16(19),17-tetraen-10-one]
6 | 0.036 | COc1cc(C(=O)N2[C@H]3CC[C@@H]2[C@H](N)C3)cc2nc(-c3cc4ccc5nc4n3CCCCOCC(=O)N[C@@H]5C)c(C)n12 [Example 324, (10~{R})-16-[7-[(1~{R},2~{R},4~{S})-2-amino-7-azabicyclo[2.2.1]heptane-7-carbonyl]-5-methoxy-3-methyl-imidazo[1,2-a]pyridin-2-yl]-10-methyl-6-oxa-1,9,18-triazatricyclo[9.5.2.0^{14,17}]octadeca-11(18),12,14(17),15-tetraen-8-one]
7 | 0.016 | COc1cc(C(=O)N2[C@H]3CC[C@@H]2[C@H](N)C3)cc2nc(-c3cc4ccc5nc4n3C[C@H]3C[C@@H]3COCC(=O)N[C@@H]5C)c(C)n12 [Example 325, (3~{S},5~{S},11~{R})-17-[7-[(1~{R},2~{R},4~{S})-2-amino-7-azabicyclo[2.2.1]heptane-7-carbonyl]-5-methoxy-3-methyl-imidazo[1,2-a]pyridin-2-yl]-11-methyl-7-oxa-1,10,19-triazatetracyclo[10.5.2.0^{3,5}.0^{15,18}] nonadeca-12(19),13,15(18),16-tetraen-9-one]
8 | 0.03 | COc1cc(C(=O)N2[C@H]3CC[C@@H]2[C@H](N)C3)cc2nc(-c3cc4ccc5nc4n3C[C@@H]3C[C@H]3COCC(=O)N[C@@H]5C)c(C)n12 [Example 326, (3~{R},5~{R},11~{R})-17-[7-[(1~{R},2~{R},4~{S})-2-amino-7-azabicyclo[2.2.1]heptane-7-carbonyl]-5-methoxy-3-methyl-imidazo[1,2-a]pyridin-2-yl]-11-methyl-7-oxa-1,10,19-triazatetracyclo[10.5.2.0^{3,5}.0^{15,18}] nonadeca-12(19),13,15(18),16-tetraen-9-one]
9 | 0.048 | COc1cc(C(=O)N2[C@H]3CC[C@@H]2[C@H](N)C3)cc2nc(-c3cc4ccc5nc4n3CC3(CC3)COCCC(=O)N[C@@H]5C)c(C)n12 [Example 329, (10~{R})-16-[7-[(1~{R},2~{R},4~{S})-2-amino-7-azabicyclo[2.2.1]heptane-7-carbonyl]-5-methoxy-3-methyl-imidazo[1,2-a]pyridin-2-yl]-10-methyl-spiro[5-oxa-1,9,18-triazatricyclo[9.5.2.0^{14,17}]octadeca-11(18),12,14(17),15-tetraene-3,1′-cyclopropane]-8-one]
10 | 0.08 | COc1cc(C(=O)N2[C@H]3CC[C@@H]2[C@H](N)C3)cc2nc(-c3cc4ccc5nc4n3CCC3(CCOCC(=O)N[C@@H]5C)CC3)c(C)n12 [Example 330, (11~{R})-17-[7-[(1~{R},2~{R},4~{S})-2-amino-7-azabicyclo[2.2.1]heptane-7-carbonyl]-5-methoxy-3-methyl-imidazo[1,2-a]pyridin-2-yl]-11-methyl-spiro[7-oxa-1,10,19-triazatricyclo[10.5.2.0^{15,18}]nonadeca-12(19),13,15(18),16-tetraene-4,1′-cyclopropane]-9-one]
11 | 0.069 | COc1cc(C(=O)N2[C@H]3CC[C@@H]2[C@H](N)C3)cc2nc(-c3cc4ccc5nc4n3CCC3(CC3)COCCC(=O)N[C@@H]5C)c(C)n12 [Example 331, (11~{R})-17-[7-[(1~{R},2~{R},4~{S})-2-amino-7-azabicyclo[2.2.1]heptane-7-carbonyl]-5-methoxy-3-methyl-imidazo[1,2-a]pyridin-2-yl]-11-methyl-spiro[6-oxa-1,10,19-triazatricyclo[10.5.2.0^{15,18}]nonadeca-12(19),13,15(18),16-tetraene-4,1′-cyclopropane]-9-one]
12 | 0.02 | COc1cc(C(=O)N2[C@H]3CC[C@@H]2[C@H](N)C3)cc2nc(-c3cc4ccc5nc4n3CCCCC[C@H](OC)CC(=O)N[C@@H]5C)c(C)n12 [Example 332, (7~{S},11~{R})-17-[7-[(1~{R},2~{R},4~{S})-2-amino-7-azabicyclo[2.2.1]heptane-7-carbonyl]-5-methoxy-3-methyl-imidazo[1,2-a]pyridin-2-yl]-7-methoxy-11-methyl-1,10,19-triazatricyclo[10.5.2.0^{15,18}]nonadeca-12(19),13,15(18),16-tetraen-9-one]
13 | 0.033 | COc1cc(C(=O)N2[C@H]3CC[C@@H]2[C@H](N)C3)cc2nc(-c3cc4ccc5nc4n3CCCCC[C@@H](OC)CC(=O)N[C@@H]5C)c(C)n12 [Example 333, (7~{R},11~{R})-17-[7-[(1~{R},2~{R},4~{S})-2-amino-7-azabicyclo[2.2.1]heptane-7-carbonyl)-5-methoxy-3-methyl-imidazo[1,2-a]pyridin-2-yl]-7-methoxy-11-methyl-1,10,19-triazatricyclo[10.5.2.0^{15,18}]nonadeca-12(19),13,15(18),16-tetraen-9-one]
14 | 0.034 | COc1cc(C(=O)N2[C@H]3CC[C@@H]2[C@H](N)C3)cc2nc(-c3cc4ccc5nc4n3C[C@H]3C[C@H]3COCCC(=O)N[C@@H]5C)n(C)c12 [Example 336, (3~{S),5~{R},12~{R})-18-[5-[(1~{R},2~{R},4~{S})-2-amino-7-azabicyclo[2.2.1]heptane-7-carbonyl]-7-methoxy-1-methyl-benzimidazol-2-yl]-12-methyl-7-oxa-1,11,20-triazatetracyclo[11.5.2.0^{3,5}.0^{16,19}] icosa-13(20),14,16(19),17-tetraen-10-one]
15 | 0.032 | COc1cc(C(=O)N2[C@H]3CC[C@@H]2[C@H](N)C3)cc2nc(-c3cc4ccc5nc4n3C[C@@H]3C[C@@H]3COCCC(=O)N[C@@H]5C)n(C)c12 [Example 337, (3~{R},5~{S},12~{R})-18-[5-[(1~{R},2~{R},4~{S})-2-amino-7-azabicyclo[2.2.1]heptane-7-carbonyl]-7-methoxy-1-methyl-benzimidazol-2-yl]-12-methyl-7-oxa-1,11,20-triazatetracyclo[11.5.2.0^{3,5}.0^{16,19}] icosa-13(20),14,16(19),17-tetraen-10-one]
16 | 0.053 | COc1cc(C(=O)N2[C@H]3CC[C@@H]2[C@H](N)C3)cc2nc(-c3cc4ccc5nc4n3CC[C@H]3C[C@H]3COCCC(=O)N[C@@H]5C)n(C)c12 [Example 338, (4~{R},6~{R},13~{R})-19-[5-[(1~{R},2~{R},4~{S})-2-amino-7-azabicyclo[2.2.1]heptane-7-carbonyl]-7-methoxy-1-methyl-benzimidazol-2-yl]-13-methyl-8-oxa-1,12,21-triazatetracyclo[12.5.2.0^{4,6}.0^{17,20}] henicosa-14(21),15,17(20),18-tetraen-11-one]
17 | 0.039 | COc1cc(C(=O)N2[C@H]3CC[C@@H]2[C@H](N)C3)cc2nc(-c3cc4ccc5cc4n3CCCCCC[C@](C)(OC)C(=O)N[C@@H]5C)n(C)c12 [Example 339, (8~{S),11~{R})-17-[5-[(1~{R},2~{R},4~{S})-2-amino-7-azabicyclo[2.2.1]heptane-7-carbonyl]-7-methoxy-1-methyl-benzimidazol-2-yl]-8-methoxy-8,11-dimethyl-1,10-diazatricyclo[10.5.2.0^{15,18}]nonadeca-12(19),13,15(18),16-tetraen-9-one]
